Assay results taken from article PMC8597786 (Antimicrobial Agents and Chemotherapy, 2021).
Several values for one entry are separate records, joined by “and”; a condition that tells them apart may be missing. Identical values can stand only once. Like-named read-outs stand apart in the source and are kept apart here.

Experiments:
[1] = target: T1, SARS-CoV-2 spike RBD/ACE2 (Severe acute respiratory syndrome coronavirus 2, UniProt P0DTC2); test: biochemical; type: binding, SARS-CoV-2 (USA-WA1/2020)
T1 construct: a SARS-CoV-2 RBD protein derived from USA-WA1/2020 and containing a C-terminal His tag; a full-length ACE2 peptide with a C-terminal Fc tag; purchased Sino Biological

[2] = Resazurin cell viability assay in uninfected cells; type: cell-based; settings: African green monkey, uninfected Vero-E6 cells, resazurin, 4 days
Protocol: (§1) A total of 20,000 Vero-E6 cells were plated in 96-well plates and incubated overnight before addition of compounds at defined concentrations; 0.1% DMSO vehicle control was added to wells in the absence of test compounds. All experimental conditions were performed in duplicate. Cells were then incubated at 37°C and 5% CO2 for 4 days before addition of resazurin (Sigma-Aldrich) to a final concentration of 20 μg/ml. Cells were incubated for an additional 4 h before fluorescence intensity was measured using a ClarioStar plate reader (BMG Labtech). Background fluorescence was subtracted from wells containing resazurin and D10+ medium but no cells.

[3] = test system: VSVΔG-S-GFP pseudovirus containing SARS-CoV-2 spike (USA-WA1/2020)
[4] = test system: SARS-CoV-2 (BetaCov isolate); settings: supernatant viral RNA by quantitative PCR after 48 h, read-out: EC50 in SARS-CoV-2-infected Vero-E6 cells; cited from earlier work
[5] = test system: Vero-E6 cells; test: Resazurin cell viability assay in uninfected cells; type: cell-based
Protocol: as §1

[6] = target: T2, PD-1/PD-L1 (Homo sapiens, UniProt Q9NZQ7); test: PD-1/PD-L1 AlphaScreen interaction assay; type: binding
T2 construct: purchased Sino Biological
T2 sequence (Q9NZQ7 19-239 limits assumed): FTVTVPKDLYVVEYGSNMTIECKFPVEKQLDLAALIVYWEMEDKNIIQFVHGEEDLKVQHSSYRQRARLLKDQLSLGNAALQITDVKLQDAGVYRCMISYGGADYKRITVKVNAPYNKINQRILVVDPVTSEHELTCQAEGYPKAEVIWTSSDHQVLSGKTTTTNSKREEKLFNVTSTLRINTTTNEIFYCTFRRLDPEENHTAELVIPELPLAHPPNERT
Protocol: PD-1 binding to PD-L1 was also determined using AlphaScreen technology. […] Next, 5 μl of PD-L1-Fc/protein A acceptor beads was added first to the plate, followed by 100 nl of test compound prepared as described above, followed by 5 μl of PD-1-His/nickel chelate donor beads. For each experiment, all conditions were performed in duplicate. Following 2 h of incubation at room temperature, data were collected as described above and normalized to percentage inhibition, where 100% equaled the AlphaScreen signal in the absence of PD-1-His, and 0% equaled the AlphaScreen signal in the presence of both proteins and 0.1% DMSO alone.

[7] = target: T3, SARS-CoV-2 M^pro (Severe acute respiratory syndrome coronavirus 2, UniProt P0DTD1); test: M^pro enzymatic assay (FRET fluorogenic peptide substrate); type: biochemical
T3 construct: QHD43415.1; amino acids [aa]; 3264 to 3567; HIS-SUMO (N, cleaved yes); made in house; host or cells: E. coli BL21(DE3)

[8] = test system: VSVΔG-S-GFP pseudovirus containing SARS-CoV-2 spike from B.1.1.7; type: cell-based, SARS-CoV-2 B.1.1.7; settings: for % GFP+ nuclei, Average: 50 μM; for Infected cells at 50 μM (%), VSVΔG-S-GFP pseudovirus B.1.1.7: 24 h
[9] = test system: VSVΔG-S-GFP pseudovirus containing SARS-CoV-2 spike from B.1.351; type: cell-based, SARS-CoV-2 B.1.351; settings: for % GFP+ nuclei, Average: 50 μM; for Infected cells at 50 μM (%), VSVΔG-S-GFP pseudovirus B.1.351: 24 h
[10] = test system: RBD with ACE2; settings: read-out: IC50, inhibition of binding of RBD with ACE2; cited from earlier work
[11] = test system: SARS-CoV-2; settings: read-out: EC50, SARS-CoV-2 replication; cited from earlier work
[12] = 200 mg/kg; cited from earlier work
[13] = 200 mg/kg; cited from earlier work; remark: listed apart in the source
[14] = 100 mg/kg; cited from earlier work
[15] = read-out: IC50 for Spike/ACE2 AlphaScreen

Row | Compound | IC50 [1] | CC50 at 4 days [2] | % GFP+ nuclei, Average ([3]; 50 μM) | Infected cells at 50 μM (%), VSVΔG-S-GFP pseudovirus WA1/2020 ([3]; 24 h) | Selectivity index [1] | IC50 [6] | IC50 [7] | % GFP+ nuclei, Average [8] | Infected cells at 50 μM (%), VSVΔG-S-GFP pseudovirus B.1.1.7 [8] | % GFP+ nuclei, Average [9] | Infected cells at 50 μM (%), VSVΔG-S-GFP pseudovirus B.1.351 [9] | further results
1 | Oc1ccc(/C=C/c2cc(O)cc(O)c2)cc1 [Resveratrol, resveratrol, reference compound] | > 100 µM | ~100 µM | 2.36% | 96.3 ± 14.7% and 96.3% | – | – | – | – | – | – | – | Total cell nuclei, % of nuclei observed in untreated, infected cells ([3]; 50 μM, 24 h): 60.3 ± 7.0%; EC50 [4]: 10.7 µM
2 | REGN10933 | – | – | – | – | – | – | – | – | – | – | – | IC50 [1, 15]: 0.00018 µM; Cytotoxicity by resazurin staining ([5]; 4 days of treatment): no evidence of cytotoxicity
3 | Cc1c(COc2cc(OCc3cccc(C#N)c3)c(CN3C[C@H](O)C[C@@H]3C(=O)O)cc2Cl)cccc1-c1ccc2c(c1)OCCO2 [BMS-1166, reference compound] | – | – | – | – | – | – | – | – | – | – | – | IC50 [1, 15]: > 100 µM
4 | Oc1ccc([C@@H]2c3c(O)cc(O)cc3[C@@H]3c4c(cc(O)c5c4[C@@H]2[C@H](c2ccc(O)cc2)[C@H]5c2cc(O)cc4c2[C@@H](c2cc(O)cc(O)c2)[C@H](c2ccc(O)cc2)O4)O[C@H]3c2ccc(O)cc2)cc1 [Vaticanol B, vaticanol B] | 0.067 µM | > 100 µM | 2.05% | 83.7 ± 4.9% and 83.7% | 247.8 | 16.6 µM | 47.6 µM | 2.02% | 37.7 ± 4.1% and 37.7% | 3.29% | 72.3 ± 7.3% and 72.3% | –
5 | Oc1ccc([C@H]2Oc3cc(O)cc([C@@H]4[C@H](c5cc(O)cc(O)c5)[C@@H](c5ccc(O)cc5)O[C@H]4c4ccc(O)cc4)c3[C@@H]2c2cc(O)c3c(c2)[C@@H](c2cc(O)cc(O)c2)[C@H](c2ccc(O)cc2)O3)cc1 [kobophenol A] | – | – | – | – | – | – | – | – | – | – | – | IC50 [10]: 1.8 µM; EC50 [11]: 71.6 µM
6 | CC(C)C[C@H](NC(=O)OCc1ccccc1)C(=O)N[C@@H](CC1CCNC1=O)C(O)S(=O)(=O)O (stereo partly shown) [GC-376, reference compound] | – | – | – | – | – | – | – | – | – | – | – | CC50 ([5]; resazurin, 4 days): > 10 µM
7 | Oc1ccc([C@@H]2c3c(O)cc(O)cc3[C@@H]3c4c(cc(O)cc4[C@H]2[C@@H]2c4cc(O)cc5c4[C@@H](c4cc(O)cc(O)c4[C@H]2c2ccc(O)cc2)[C@H](c2ccc(O)cc2)O5)O[C@H]3c2ccc(O)cc2)cc1 [Hopeaphenol, (–)-hopeaphenol] | 0.11 µM | > 100 µM | 0.69% | 28.2 ± 1.2% and 28.2% | 257.3 | 28.3 µM | 42.5 µM | 1.83% | 34.1 ± 13.6% and 34.1% | 0.93% | 20.4 ± 2.4% and 20.4% | Plasma triglyceride elevation in olive oil-treated mice [12]: inhibit plasma triglyceride elevation; Plasma glucose in sucrose-loaded mice [13]: reduce plasma glucose; Effect against LPS-induced liver injury in mice [14]: hepatoprotective effects
8 | CCC(CC)COC(=O)[C@H](C)N[P@](=O)(OC[C@H]1O[C@@](C#N)(c2ccc3c(N)ncnn23)[C@H](O)[C@@H]1O)Oc1ccccc1 [Remdesivir, remdesivir, reference compound] | – | > 10 µM | – | – | – | – | – | – | – | – | – | –
9 | OC[C@H]1O[C@@H](Oc2cc3c4c(c2)[C@@H]([C@@H]2c5cc(O)cc6c5[C@@H](c5cc(O)cc(O)c5[C@H]2c2ccc(O)cc2)[C@H](c2ccc(O)cc2)O6)[C@H](c2ccc(O)cc2)c2c(O)cc(O)cc2[C@H]4[C@H](c2ccc(O)cc2)O3)[C@H](O)[C@@H](O)[C@@H]1O [Vatalbinoside A, vatalbinoside A] | 0.24 µM | > 100 µM | 0.99% | 40.4 ± 16.7% and 40.4% | 92.9 | 22.3 µM | 68.7 µM | 2.35% | 43.8 ± 3.4% and 43.8% | 1.87% | 41.1 ± 2.6% and 41.1% | –
